Experimental data taken from patent publication US20170151261A1, “SKIN WOUND HEALING AND SCAR REDUCTION WITH PROSTAGLANDIN EP4 AGONIST COMBINATIONS” (Allergan, Inc., priority 2012, published 2017).

Biological target: EP4 (Homo sapiens, UniProt P35408)
Assay: EP4 binding (Ki / IC50)

EP4, sequence (P35408 whole entry): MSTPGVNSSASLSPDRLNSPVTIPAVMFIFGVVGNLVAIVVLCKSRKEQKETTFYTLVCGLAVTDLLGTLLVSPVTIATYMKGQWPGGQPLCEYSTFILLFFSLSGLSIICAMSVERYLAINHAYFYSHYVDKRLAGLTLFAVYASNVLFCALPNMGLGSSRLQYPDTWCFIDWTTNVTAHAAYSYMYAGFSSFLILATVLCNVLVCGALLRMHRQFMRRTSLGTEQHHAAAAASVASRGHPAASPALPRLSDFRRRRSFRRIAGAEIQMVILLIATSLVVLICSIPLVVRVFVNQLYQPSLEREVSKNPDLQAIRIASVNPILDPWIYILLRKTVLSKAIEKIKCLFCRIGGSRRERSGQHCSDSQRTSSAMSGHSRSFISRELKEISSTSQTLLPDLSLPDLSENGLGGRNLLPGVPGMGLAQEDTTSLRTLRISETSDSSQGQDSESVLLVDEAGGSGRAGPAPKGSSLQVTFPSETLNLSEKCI

IC50: > 10 µM
Structure (SMILES): CCCCC[C@H](O)c1ccc(N2C(=O)CC[C@@H]2CCCc2ccc(C(=O)O)s2)cc1
